Reference: paper PMC4746011, “IspH–RPS1 and IspH–UbiA: “Rosetta stone” proteins” (Chemical Science, 2015)
Read-outs that look alike come from different tables or passages of the source.

B1: CthIspH–RPS1 (Acetivibrio thermocellus ATCC 27405) (protein)
chain: MEIIVAKSAGFCFGVSNAVKTVNNLLENQKEPIYTYGPIIHNAQVVDLFTSKGVKKIDDIDEAEPNGHIVIRAHGVTPDIYKKISDKGLILEDATCPYVKKIHNLVKEKSEEGYKIIIVGDRNHPEVIGINGWCNNQAYIVDSVDDVEKFPTSDEKVCVVAQTTITNEKWLEVNTALKKKFKNILKFDTICSATSRRQNEAEEIAKNVDMMIIIGGKNSSNTQKLYDICKKHCNLTYKIETSGDLPPVDIKKIKKVGISAGASTPDWVIEEVIKKMSELNKQGMVDILENDGEIDFANAFENSFVRIHAGDTVKGKIIGFNSNEVFVDLGYKADGIIPLEEYTDDPNFNIEKEVKIGEEVEVLVEMVNDGEGNVRLSKRKVDAIKSWDDIVKAYENKTPVNAYVVEVVKGGVIASYKGVRIFVPASQVSDRYVKDLNEFLKRSITVRILELNEKRRKVVGSARVIIEEEKEALANRTWNSMEVGKVFKGTVKSLTDFGAFVDIGGVDGLIHISELSWTRVKHPSEVLKVGDEVEVTVLEFDKEKKKVSLGYRKMEDNPWYKIEEKYKVGDVVKVTVLRFAPFGAFVELEKGVDGLVHISQISSKRLAKVEDALEIGMKVDAKIIEVDGENKKISLSIKEVMPIDPPSSKSESKAKDGSEAKETSANTEEEAEPTEHREDMNVTVEDLVSKTTQS

Assays:
CthIspH–RPS1 [1] = molecular target: T1, CthIspH–RPS1 (Acetivibrio thermocellus (Clostridium thermocellum), UniProt A3DDC0); experiment: CthIspH–RPS1 inhibition assay (methyl viologen method); format: biochemical; on IC50 against CthIspH–RPS1: 40 nM enzyme, 50 µM HMBPP, 40 µM dithionite
Procedure: (§1) The CthIspH kinetics and inhibition assays were performed by using the methyl viologen method described previously.[27] […] The reactions were monitored at 606 nm. K m and k cat were fitted by using a Michaelis–Menten relation in Origin 9.1. The extinction coefficient for the methyl viologen radical cation at 606 nm was taken to be 13 700 M^–1 cm^–1.[28]

AaIspH = tested on: AaIspH; design: method as in PMID 24481599, PMID 20426416; settings: Fig. 5a bottom value; read-out: IC50 against AaIspH; cited from earlier work
CthIspH–RPS1 [2] = molecular target: T1, CthIspH–RPS1; experiment: CthIspH–RPS1 Michaelis–Menten kinetics (methyl viologen assay); format: biochemical; settings: substrate HMBPP, room temperature
Procedure: as §1
Substrate consumption and product formation were also confirmed by LC-MS (Fig. S3 ^†) and NMR analysis.

[3] = tested on: IspH from the thermophile Aquifex aeolicus; design: method as in PMID 24481599; settings: A. aeolicus IspH; cited from earlier work
[4] = substrate: C/C(=C\COP(=O)(O)OP(=O)(O)O)CO; experiment: purified protein, by the assay type; settings: other: substrate HMBPP, room temperature
[5] = read-out: IC50 against CthIspH–RPS1

Molecule	IC50 (CthIspH–RPS1 [1]; [5]) [µM]	other results
C#CCOP(=O)(O)OP(=O)(O)O [Compound 4]	8.8	–
C#CCCOP(=O)(O)OP(=O)(O)O [Compound 5]	3.3	IC50 (AaIspH): 0.45 µM
C#CCCCOP(=O)(O)OP(=O)(O)O [Compound 6]	47	–
O=P(O)(O)OP(=O)(O)OCc1cccnc1 [Compound 7]	150	–
O=P(O)(O)OP(=O)(O)OCCc1cccnc1 [Compound 8]	240	–
O=P(O)(O)OP(=O)(O)OCCCc1cccnc1 [Compound 9]	490	–
O=P(O)(O)OP(=O)(O)OCc1ccncc1 [Compound 10]	120	–
O=P(O)(O)OP(=O)(O)OCC#CCO [Compound 11]	92	–
CC#CCOP(=O)(O)OP(=O)(O)O [Compound 12]	760	–
O=P(O)(O)OP(=O)(O)SCC#CCO [Compound 13, 4-Hydroxybut-2-ynyl-S-thiolodiphosphate]	–	IC50 (CthIspH–RPS1 [1]): 3.8 µM; activity against CthIspH–RPS1 (in words) (CthIspH–RPS1 [1]; inhibition of catalytic activity): very active
C/C(=C\COP(=O)(O)OP(=O)(O)O)CO [HMBPP, (E)-1-hydroxy-2-methyl-but-2-enyl 4-diphosphate]	–	kcat (CthIspH–RPS1 [2]): 56 min^–1; Km [3]: 7 µM; kcat [3]: 1.0 s^–1
B1	–	Km [4]: 15 µM
